These results are taken from patent publication US20260317312A1, “ISOXAZOLIDINES AS RIPK1 INHIBITORS AND USE THEREOF” (GENZYME CORPORATION, priority 2023, published 2026).

For test [1], the target named is T1, hRIPK1 (aa 1-375) fusion protein (Homo sapiens, UniProt Q13546).
T1 construct: hRIPK1 (aa 1-375) fusion protein
T1 sequence (Q13546 1-375): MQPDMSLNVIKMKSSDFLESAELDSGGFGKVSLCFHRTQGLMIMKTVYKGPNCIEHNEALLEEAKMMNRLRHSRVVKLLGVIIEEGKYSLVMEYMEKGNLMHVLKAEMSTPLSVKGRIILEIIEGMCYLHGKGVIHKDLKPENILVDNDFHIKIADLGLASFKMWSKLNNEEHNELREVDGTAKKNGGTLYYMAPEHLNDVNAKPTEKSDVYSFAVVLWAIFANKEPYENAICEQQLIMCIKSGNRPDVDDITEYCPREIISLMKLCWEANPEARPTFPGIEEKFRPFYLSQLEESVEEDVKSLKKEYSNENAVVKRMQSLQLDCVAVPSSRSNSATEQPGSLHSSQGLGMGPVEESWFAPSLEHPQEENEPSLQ
In words: Receptor-Interacting Protein Kinase 1 inhibition, ADP Glo assay (conversion of ATP to ADP due to autophosphorylation). It counts as biochemical. The following applies: ATP 50 μM, 30 min preincubation, 240 min incubation, room temperature, DMSO 1%. Put shortly:
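hRIPK1 (aa 1-375) fusion protein (3.6 μg/ml final) was preincubated 30 min at rt with compound (33300-1.69 nM, 1% DMSO), then 50 μM ATP was added for 240 min at rt. ADP from autophosphorylation was measured by ADP-Glo luminescence and curves fitted by nonlinear regression.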

Another test relates to U937 cells. The experiment in a line: Cellular assay in U937 cells to measure activity of RIPK1-inhibitors on cell death (necroptosis). The following applies: overnight (18 to 24 hrs), 37° C., MTS readout. The format is cell-based.
The mark [2] stands for this setting: Homo sapiens, U-937, TNFα/zVAD.fmk induced cell death (necroptosis).
The mark [3] stands for this setting: TNFα/zVAD.fmk induced cell death (necroptosis).

As for `NC(=O)c1cc(F)cc(OC[C@H]2CC[C@H](C(=O)N3OCC[C@H]3c3cnccn3)CC2)c1` [Compound 112, trans-3-fluoro-5-[[4-[(3S)-3-pyrazin-2-ylisoxazolidine-2-carbonyl]cyclohexyl]methoxy]benzamide], the figures for the half-inhibitory concentration (IC50) (in test [1]; in the test on U937 cells (setting [2])) were 41 nM and 47 nM, respectively.

With `CC1(C)OC(=O)N(c2ccc(F)c(O[C@H]3CC[C@@H](C(=O)N4OCC[C@H]4c4cc(F)cc(C#N)c4)CC3)c2)C1=O` [Compound 81, cis-3-((S)-2-(4-(5-(5,5-dimethyl-2,4-dioxooxazolidin-3-yl)-2-fluorophenoxy)cyclohexane-1-carbonyl)isoxazolidin-3-yl)-5-fluorobenzonitrile], the IC50 was 92 nM in test [1] and 855 nM with U937 cells (setting [2]).

In the case of `N#Cc1cc(N[C@H]2C[C@@H](C(=O)N3OCC[C@H]3c3cccc(F)c3)C2)ncn1` [Compound 17, cis-6-((3-((S)-3-(3-fluorophenyl)isoxazolidine-2-carbonyl)cyclobutyl)amino)pyrimidine-4-carbonitrile], the IC50 came out at 56 nM in test [1] and 194 nM in the test on U937 cells (setting [2]).

`N#Cc1cncc([C@@H]2CCON2C(=O)[C@H]2CC[C@H](COc3ccc(F)c(C(N)=O)c3)CC2)c1` [Compound 74, trans-5-((4-((S)-3-(5-cyanopyridin-3-yl)isoxazolidine-2-carbonyl)cyclohexyl)methoxy)-2-fluorobenzamide]: the IC50 in test [1] stood at 24 nM; in the test with U937 cells (setting [2]), 82 nM.

As to `Cn1ccn(-c2ccc(OC[C@H]3CC[C@H](C(=O)N4OCC[C@H]4c4cncc(C#N)c4)CC3)c(F)c2)c1=O` [Compound 89, trans-5-((S)-2-(4-((2-fluoro-4-(3-methyl-2-oxo-2,3-dihydro-1H-imidazol-1-yl)phenoxy)methyl)cyclohexane-1-carbonyl)isoxazolidin-3-yl)nicotinonitrile], the IC50 turned out to be 18 nM in test [1] and 13 nM in the test on U937 cells (setting [2]).

For the compound `N#Cc1cc(F)cc([C@@H]2CCON2C(=O)C2CCCC(COc3cc(C(N)=O)ncn3)CC2)c1` (single isomer, unassigned) [Compound 128], the values for the IC50 (in test [1]; in the test with U937 cells (setting [3])) were 20 nM and 691 nM, respectively.

`C[C@]1(C(=O)N2OCC[C@H]2c2cc(F)cc(F)c2)C[C@@H](Nc2nccc(C#N)n2)C1` [Compound 5, cis-2-((3-((S)-3-(3,5-difluorophenyl)isoxazolidine-2-carbonyl)-3-methylcyclobutyl)amino)pyrimidine-4-carbonitrile]: the IC50 stood at 38 nM in test [1] and 75 nM in the test on U937 cells (setting [2]).

Regarding `N#Cc1cc(F)cc(N[C@H]2C[C@@H](C(=O)N3OCC[C@H]3c3cc(F)cc(C#N)c3)C2)c1` [Compound 37, cis-3-((S)-2-(3-((3-cyano-5-fluorophenyl)amino)cyclobutane-1-carbonyl)isoxazolidin-3-yl)-5-fluorobenzonitrile], the IC50 in test [1] came out at 34 nM; with U937 cells (setting [2]), 45 nM.

For `Cc1ccc(OC[C@H]2CC[C@H](C(=O)N3OCC[C@H]3c3cc(F)cc(C#N)c3)CC2)cc1C(N)=O` [Compound 85, trans-5-((4-((S)-3-(3-cyano-5-fluorophenyl)isoxazolidine-2-carbonyl)cyclohexyl)methoxy)-2-methylbenzamide], the IC50 in test [1] worked out at 28 nM; in the test on U937 cells (setting [2]), 27 nM.

For `N#Cc1cc(F)cc(N[C@H]2C[C@@H](C(=O)N3OCC[C@H]3c3ccc(Cl)cc3)C2)c1` [Compound 25, cis-3-((3-((S)-3-(4-chlorophenyl)isoxazolidine-2-carbonyl)cyclobutyl)amino)-5-fluorobenzonitrile], the IC50 in test [1] amounted to 64 nM; in the test with U937 cells (setting [2]), 420 nM.

Turning to `NC(=O)c1cc(OCC2CCC(C(=O)N3OCC[C@H]3c3cc(F)cc(F)c3)C2)ncn1` (single isomer, unassigned; stereoisomer 3) [Compound 120], the IC50 was determined as 32 nM in test [1] and 336 nM in the test on U937 cells (setting [3]).

Consider `N#Cc1cc(F)cc([C@@H]2CCON2C(=O)[C@H]2C[C@@H](n3cnc4ccccc43)C2)c1` [Compound 40, cis-3-((S)-2-(3-(1H-benzo[d]imidazol-1-yl)cyclobutane-1-carbonyl)isoxazolidin-3-yl)-5-fluorobenzonitrile], for which the IC50 is 18 nM in test [1] and 262 nM in the test on U937 cells (setting [2]).

`N#Cc1cc(F)cc(O[C@H]2C[C@H](C(=O)N3OCC[C@H]3c3cc(F)cc(F)c3)C2)c1` [Compound 50, trans-3-(3-((S)-3-(3,5-difluorophenyl)isoxazolidine-2-carbonyl)cyclobutoxy)-5-fluorobenzonitrile]: the IC50 in test [1] came to 25 nM; with U937 cells (setting [2]) it was 130 nM.

As to `Cc1cc(C)n(-c2ccc(OC[C@H]3CC[C@H](C(=O)N4OCC[C@H]4c4cc(F)cc(F)c4)CC3)c(F)c2)n1` [Compound 62, trans-((S)-3-(3,5-difluorophenyl)isoxazolidin-2-yl)(4-((4-(3,5-dimethyl-1H-pyrazol-1-yl)-2-fluorophenoxy)methyl)cyclohexyl)methanone], the IC50 was determined as 28 nM in test [1] and 34 nM in the test on U937 cells (setting [2]).

With `O=C([C@H]1C[C@@H](n2cnc3ccccc32)C1)N1OCC[C@H]1c1cncc(F)c1` [Compound 42, cis-(3-(1H-benzo[d]imidazol-1-yl)cyclobutyl)((S)-3-(5-fluoropyridin-3-yl)isoxazolidin-2-yl)methanone], the IC50 turned out to be 156 nM in test [1] and 921 nM in the test on U937 cells (setting [2]).

Regarding `N#Cc1ccc(OC[C@H]2CC[C@H](C(=O)N3OCC[C@H]3c3cnccn3)CC2)nc1` [Compound 103, trans-6-[[4-[(3S)-3-pyrazin-2-ylisoxazolidine-2-carbonyl]cyclohexyl]methoxy]pyridine-3-carbonitrile], the figures for the IC50 (in test [1]; with U937 cells (setting [2])) were 57 nM and 98 nM, respectively.

On to `CC1(C)OC(=O)N(c2ccc(F)c(OC[C@H]3CC[C@H](C(=O)N4OCC[C@H]4c4cncc(C#N)c4)CC3)c2)C1=O` [Compound 92, trans-5-((S)-2-(4-((5-(5,5-dimethyl-2,4-dioxooxazolidin-3-yl)-2-fluorophenoxy)methyl)cyclohexane-1-carbonyl)isoxazolidin-3-yl)nicotinonitrile], for which the IC50 turned out to be 42 nM in test [1] and 229 nM in the test on U937 cells (setting [2]).

Consider `NC(=O)c1ccnc(C2CCC(C(=O)N3OCC[C@H]3c3cc(F)cc(F)c3)C2)c1` (single isomer, unassigned) [Compound 114], for which the IC50 in test [1] turned out to be 132 nM; with U937 cells (setting [2]), 816 nM.

With `CN1CC(=O)N(c2ccc(Cl)c(OC[C@H]3CC[C@H](C(=O)N4OCC[C@H]4c4cc(F)cc(C#N)c4)CC3)c2)C1=O` [Compound 80, trans-3-((S)-2-(4-((2-chloro-5-(3-methyl-2,5-dioxoimidazolidin-1-yl)phenoxy)methyl)cyclohexane-1-carbonyl)isoxazolidin-3-yl)-5-fluorobenzonitrile], the IC50 in test [1] stood at 164 nM; in the test with U937 cells (setting [2]) it was 123 nM.

`CC1(C)OC(=O)N(c2ccc(Cl)c(OC[C@H]3CC[C@H](C(=O)N4OCC[C@H]4c4cc(F)cc(F)c4)CC3)c2)C1=O` [Compound 57, trans-3-(4-chloro-3-((4-((S)-3-(3,5-difluorophenyl)isoxazolidine-2-carbonyl)cyclohexyl)methoxy)phenyl)-5,5-dimethyloxazolidine-2,4-dione]: the IC50 in test [1] is 38 nM; in the test with U937 cells (setting [2]), 37 nM.
